Laboratory results published in PMC9138959 (Biomedicines, 2022).
Several values for one entry are separate records, joined by “and”; a condition that tells them apart may be missing. Equal values may be shown once. Entries after “also recorded” stand apart in the source; their conditions may differ.

Key:
SARS-CoV-2 = assay: microbe, parasite or virus in culture; assay type: cell-based; conditions: Severe acute respiratory syndrome coronavirus 2, Vero, 24 h; read-out: IC50, inhibition of SARS-CoV-2 infection
SARS-CoV-2 PLpro = SARS-CoV-2 PLpro (Severe acute respiratory syndrome coronavirus 2, UniProt P0DTD1); assay: SARS-CoV-2 PLpro activity inhibition assay; assay type: biochemical; conditions: 25 μM compound
Description: The fluorescence intensity was measured at 360 nm/460 nm using a Synergy H1 microplate reader (Bio-Tek). GRL061 (BPS Bioscience) was used as a positive control.
To elucidate the mode of action of PGG and PAC, the effect of those compounds on the activity of the viral protease, Mpro, was examined using SARS-CoV-2 Mpro activity assay kits.

SARS-CoV = assay: microbe, parasite or virus in culture; assay type: cell-based; conditions: Severe acute respiratory syndrome coronavirus, Vero, 24 h, read-out: IC50, inhibition of SARS-CoV infection
MERS-CoV = assay: microbe, parasite or virus in culture; assay type: cell-based; conditions: Middle East respiratory syndrome-related coronavirus, Vero, 24 h, read-out: IC50, inhibition of MERS-CoV infection
in vitro = conditions: African green monkey
SARS-CoV-2 Mpro = SARS-CoV-2 Mpro (Severe acute respiratory syndrome coronavirus 2, UniProt P0DTD1); assay: SARS-CoV-2 Mpro activity inhibition assay (FRET peptide); assay type: biochemical; conditions: MBP-tagged Mpro, FRET peptide substrate, 30 min
SARS-CoV-2 RdRp = target: T1, SARS-CoV-2 RdRp (Severe acute respiratory syndrome coronavirus 2, UniProt P0DTD1); assay: cell-based; conditions: HEK293T cells, 18 h treatment; read-out: IC50, SARS-CoV-2 RdRp activity (NLuc/FLuc)
T1 construct: the RdRp expression plasmid, pCI-SARS-CoV-2 nsp12-N; expressed in transfected cells; host or cells: HEK293T

Q: With `O=C(OC[C@H]1O[C@@H](OC(=O)c2cc(O)c(O)c(O)c2)[C@H](OC(=O)c2cc(O)c(O)c(O)c2)[C@@H](OC(=O)c2cc(O)c(O)c(O)c2)[C@@H]1OC(=O)c1cc(O)c(O)c(O)c1)c1cc(O)c(O)c(O)c1` [PGG, 1,2,3,4,6-penta-O-galloyl-beta-D-glucose] as the molecule, how does the IC50 (SARS-CoV-2) read?
A: Its IC50 is 15 ± 0.75 µM.

Q: What about the “Inhibition of SARS-CoV-2 PLpro activity” value (SARS-CoV-2 PLpro) of the same molecule?
A: Its value is “did not inhibit; also recorded: did not affect”.

Q: What about the IC50 (SARS-CoV) of the same molecule?
A: The IC50 was 15.7 ± 1.02 µM.

Q: What about the IC50 (MERS-CoV) of the same molecule?
A: The IC50 was 3.47 ± 0.231 µM.

Q: And the “Cytotoxicity or inhibition of host transcription (FLuc internal control levels)” value (HEK293T cells)?
A: The value was “without cytotoxicity or the inhibition of host transcription”.

Q: What about the CC50 (in vitro) of the same molecule?
A: The CC50 was greater than 50 µM.

Q: What does the source list for `Oc1cc(O)c2c(c1)OC(c1ccc(O)c(O)c1)C(OC1(c3ccc(O)c(O)c3)Oc3cc(O)cc(O)c3C(O)C1O)C2` (centres unmarked) [PAC, proanthocyanidin]?
A: IC50 (SARS-CoV-2): 25.9 ± 0.81 µM; IC50 (SARS-CoV-2 Mpro): 25 to 26 µM and 26 µM; Inhibition of SARS-CoV-2 PLpro activity (SARS-CoV-2 PLpro): did not inhibit; also recorded: did not affect; IC50 (SARS-CoV-2 RdRp): 21 ± 1.2 µM; IC50 (SARS-CoV): 15.2 ± 0.28 µM; IC50 (MERS-CoV): 4.95 ± 0.181 µM; Cytotoxicity or inhibition of host transcription (FLuc internal control levels) (HEK293T cells): without cytotoxicity or the inhibition of host transcription; CC50 (in vitro): > 50 µM
